Measured values as given in patent publication US12617818B2, “Compositions and methods for modulating myosin subfragment-2 coiled coil stability and methods for using them” (UNIVERSITY OF NORTH TEXAS, priority 2020, dated 2026).
Several values for one entry are separate records, joined by “and”; a condition that tells them apart may be missing. Identical values can stand only once.

What was measured:
[1] = target: skeletal muscle myosin S2 peptide (MYH2) (Homo sapiens, UniProt Q9UKX2); assay: GFS, uncoiling of skeletal myosin S2 peptide dimer; type: biochemical; design: host or cells: chemical synthesis; settings: length 10 nm, absence of anti-S2 peptides, ± SEM
Chain of skeletal muscle myosin S2 peptide (MYH2) (Q9UKX2 918-953 limits assumed): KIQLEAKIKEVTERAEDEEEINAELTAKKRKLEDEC
Text: (§1) 3-aminopropyltriethoxysilane, acetone, coupling buffer (0.01 M pyridine in water with pH 6.0), 5% glutaraldehyde, quenching solution (1 M glycine in water with pH 7.0), blocking buffer (0.01 M Tris, 0.1% sodium azide, 0.1% bovine serum albumin, 0.15 M sodium chloride, and 0.001 M ethylenediaminetetraacetic acid with pH 7.0), wash buffer (0.01 M Tris, 0.1% sodium azide, 0.15 M sodium chloride, and 0.001 M ethylenediaminetetraacetic acid with pH 7.0) low salt buffer (0.1 M potassium chloride, 0.02 M imidazole, 5 mM magnesium chloride, with pH 7.0), 1-ethyl-3-(3-dimethyaminopropyl) carbodiimide, N-hydroxysuccinamide, iodoacetamide-succinimidyl ester, 8M urea solution (50 mM imidazole and 0.1 mM tris (2-carboxyethyl) phosphine with pH 7.0) monodisperse silica beads, glass slides, glass coverslips, vacuum grease, rabbit skeletal myosin, purified actin (G-actin), 1 μM human β-cardiac myosin S2 peptide, 1 μM human β-cardiac mutants myosin S2 peptide (E930del and E924K), 1 μM human skeletal myosin S2 peptide, 1 μM human smooth myosin S2 peptide, stabilizer peptide, and destabilizer peptide. A light microscope with an objective lens of 10× was mounted on an alt-azimuthal mount. A digital video camera of Sony, XCD-V60 was replaced with the ocular lenses. Extension springs on steel bracket held the alt-azimuthal mount suspended.
(§2) Gravitational force spectroscopy (GFS), is a single molecule force spectroscopy that utilizes gravitational force to measure absolute length of a single molecule at the given force calculated by the density of the bead suspending the molecule. This technique was discovered and developed in Root lab, which measures the forces in piconewton and sub-piconewton levels. Other than absolute length of a molecule, GFS measures force range required to uncoil, stretch or extend the molecule yielding a force-distance profile for the suspended molecule. Besides that, based on the force-distance profile, number of amino acids within the molecule can be calculated. […] The GFS allowed to test the flexibility or stability of a single molecule of myosin S2 peptide and also for the S2 peptides treated with anti-S2 peptides. Flexibility of myosin S2 is not dependent on assembly myosin as a thick filament or myosin in its single molecule form. The flexibility of myosin S2 region was reported to be similar in single molecule form or myosin in a thick filament assembly thus it could be conceived that the changes seen on flexibility of myosin S2 in presence of anti-S2 peptides would correlate to changes in myosin S2 flexibility for myosin in a thick filament form (Singh et al., 2018). The schematic diagram of GFS is shown below (schematic diagrams of GFS which has two modes: (FIG. 15) free-fall mode, (FIG. 16) rotational mode.
Free fall mode, another measurement variant of GFS which allows the user to get a force distance profile on a single molecule experiencing the gravitational force. Free fall mode allows a variable force by the virtue of gravity to be exerted on a single molecule. The GFS setup, light microscope with mounted camera on spring on alt-azimuthal platform, can be dropped. The start of free-fall mode force applied to the bead is zero or close to zero. […] As the platform goes towards equilibrium, trace of the acceleration decays. During the free fall mode, GFS has a single molecule which is suspended within an immobile edge and mobile bead will now experience the variable force which would be calculated by the product of mass of the bead and the acceleration of the GFS.
The product of the GFS acceleration and the mass of the bead will provide a force trace for the single molecule tethered between the immobile edge and mobile bead. The image processing would provide distance trace for the single molecule experiencing the free fall by the GFS. When this force trace is aligned with distance trace will yield the extension or the stretch experience by the single molecule under variable forces. […]

[2] = target: T1, cardiac muscle myosin S2 peptide E930del (MYH7 E930del) (Homo sapiens, UniProt P12883, DEL931-931); assay: GFS, uncoiling of E930del cardiac myosin S2 peptide dimer; type: biochemical; settings: for Force required to uncoil S2 molecule: length 10 nm, absence of stabilizer, ± SEM
T1 construct: host or cells: chemical synthesis
T1 sequence (P12883 with tags, fused parts or gaps DEL931-931): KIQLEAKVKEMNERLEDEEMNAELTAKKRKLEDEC
Text: as §1
as §2, with “The flexibility of myosin S2 region was reported to be similar in single molecule form or myosin in a thick filament assembly thus it could be conceived that the changes seen on flexibility of myosin S2 in presence of anti-S2 peptides would correlate to changes in myosin S2 flexibility for myosin in a thick filament form (Singh et al., 2018). The schematic diagram of GFS is shown below (schematic diagrams of GFS which has two modes: (FIG. 15) free-fall mode, (FIG. 16) rotational mode.” left out
Free fall mode, another measurement variant of GFS which allows the user to get a force distance profile on a single molecule experiencing the gravitational force. […] During the free fall mode, GFS has a single molecule which is suspended within an immobile edge and mobile bead will now experience the variable force which would be calculated by the product of mass of the bead and the acceleration of the GFS. […]

[3] = target: T2, cardiac muscle myosin S2 peptide (MYH7) (Homo sapiens, UniProt P12883); assay: Gravitational force spectroscopy (GFS), uncoiling of cardiac myosin S2 peptide dimer; type: biochemical; settings: length 10 nm, absence of anti-S2 peptides, ± SEM
T2 construct: host or cells: chemical synthesis
T2 sequence (P12883 912-947 limits assumed): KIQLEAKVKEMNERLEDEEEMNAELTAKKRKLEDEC
Text: as §1, §2
GFS set up assembly contains a light microscope that is horizontally mounted on an alt-azimuthal which is suspended with help of extension springs on a steel bracket. To capture both images and videos of suspended molecule, a digital video camera has been placed instead of the ocular lenses. The molecule of interest is tethered between an immobile edge of glass coverslip placed on a glass slide and mobile silica or glass bead. Slide with the molecule of interest in inserted into the light microscope component of GFS. The bead with molecule of interest is imaged through the microscope and then oriented to the direction of gravity vector to allow the maximal gravitation force exerted on to the bead. GFS has two modes, one is called rotational mode or an equilibrium mode which measures the absolute length of a single molecule and the second one is called free fall mode which measures the force required to unwind, uncoil, stretch or extend the molecule of interest.
Free fall mode, another measurement variant of GFS which allows the user to get a force distance profile on a single molecule experiencing the gravitational force. […]

[4] = tested on: primary polyclonal anti-S2 antibody; assay: cELISA of human cardiac myosin S2 peptide against rabbit skeletal myosin S2 for antibody; type: binding; settings: antibody diluted 1:64
Description: To evaluate the amount of cardiac myosin S2 peptide that would compete with rabbit skeletal myosin S2 to bind primary polyclonal anti-S2 antibody, the microtiter plate was coated with rabbit skeletal myosin first to that was added two fold dilutions of human cardiac myosin S2 peptide from 1000 nanomolar (nM) to 1 nM. Following this 1:64 diluted primary polyclonal antibody was added. After the washing step, secondary antibody is added followed by BCIP and development of color or OD was recorded and the video was analyzed by Image J. The OD will decrease as the concentration of human cardiac myosin S2 increases. […] The minimum amount of human cardiac myosin S2 peptide that would bind primary polyclonal anti-S2 antibody was at 62.5 nM (FIG. 36). Such a high binding efficiency was expected, since primary polyclonal anti-S2 antibody was raised against the same human cardiac myosin S2.

[5] = target: T3, human cardiac myosin S2 peptide (Homo sapiens, UniProt P12883); assay: Competitive ELISA (cELISA) against polyclonal anti-S2 antibody; type: binding; settings: curve fit of OD vs peptide concentration; read-out: binding efficiency (Kd) to human cardiac myosin S2 peptide
T3 construct: The 19 residue peptide was chemically synthesized
Description: Phosphate buffer saline (PBS) contained 0.14 M sodium chloride, 2.7 mM potassium chloride, 1.5 mM potassium phosphate monobasic, and 8.1 mM sodium phosphate dibasic with pH 7.4. Detergent buffer was made with 0.05% triton X-100 in PBS, blocking buffer was made with 3% powdered milk in detergent buffer. Assay buffer contained 100 mM potassium phosphate dibasic, 100 mM potassium phosphate monobasic, 1 M potassium chloride and 10 mM magnesium chloride with pH 7.0. Stocks of primary antibody (polyclonal antibody anti-S2), rabbit skeletal myosin, human cardiac myosin S2 peptide, stabilizer and destabilizer peptide. Secondary antibody conjugated with alkaline phosphatase was anti-guinea pig immunoglobulin G (IgG)-alkaline phosphatase (Sigma-Aldrich, catalog number A5062) produced in goat and isolated by affinity chromatography. Substrate was 5-Bromo-4-chloro-3-indolyl phosphate (BCIP) tablets dissolved in 10 ml of distilled water per tablet and 96 well microtiter plate.
Competitive Enzyme Linked Immunosorbent Assay (cELISA) is a classical immunochemical test to validate the binding efficiency and specificity in lower molar concentrations (Yorde et al., 1976; Voller et al., 1978; Walker, J. M. 1996). In this assay the polyclonal antibody anti-S2 raised against single alpha helix of myosin S2 would be used to compete with stabilizer or destabilizer peptide to bind myosin S2 in rabbit skeletal myosin molecule as well as small human cardiac myosin S2 peptide. This cELISA, thus have two molecules polyclonal anti-S2 and stabilizer peptide which have two binding sites one on rabbit skeletal myosin and the other one being on small human cardiac myosin S2. Since both polyclonal anti-S2 and stabilizer peptide were designed against human β-cardiac myosin S2 they both would have a stronger affinity towards the smaller human β-cardiac myosin S2 peptide against the myosin S2 on rabbit skeletal myosin.
To test the binding specificity and efficiency of stabilizer or destabilizer peptide the following setup was used. Start of the setup would be to coat the wells with rabbit skeletal myosin molecule and add appropriate amount human cardiac myosin S2 peptide that would bind the primary polyclonal anti-S2 antibody and when washed there won't be enough primary polyclonal anti-S2 antibody to bind myosin S2 of rabbit skeletal myosin adsorbed on the wells. When alkaline phosphatase conjugated secondary antibody is added on to the wells, it won't have enough or none primary polyclonal anti-S2 antibody to bind. After addition of color developing BCIP substrate to the wells it would lead to low or no color development leading to lower optical density (OD). […]

[6] = target: T4, smooth muscle myosin S2 peptide (MYH11) (Homo sapiens, UniProt P35749); assay: FRET of smooth muscle myosin S2 peptide dimer with anti-S2 peptides; type: binding; settings: control, no anti-S2 peptide; read-out: Dissociation Constant (Kd) of S2 peptide dimer
T4 construct: A 21 residue peptide of the S2 region of MYH11 was matched to the previously synthesized S2 peptide; host or cells: chemical synthesis
Text: Human smooth muscle myosin heavy chain (MYH11) is a part of the non-striated muscle. This gene can be found within esophagus, endometrium, duodenum, etc. A 21 residue peptide of the S2 region of MYH11 was matched to the previously synthesized S2 peptide of cardiac isoform and chemically synthesized 926-946. Generated amino acid sequence used is as follow: • Smooth: NH2-[…]—COOH (SEQ ID NO:11)
Resonance energy probes (donor and acceptor) were covalently attached to synthetic myosin S2 peptides of cardiac muscle, E930del cardiac muscle, E924K cardiac muscle, smooth muscle, and skeletal muscle (Aboonasrshiraz, N., 2020).
Acceptor probe was conjugated to muscle myosin S2 peptides at N-terminus. Muscle myosin S2 peptides were dissolved in 20 mM HEPES buffer at pH 8.0. And FITC was dissolved in few drops of N, N dimethyl formamide. Lastly, FITC and muscle myosin S2 peptide was reacted together in 1 to 1 molar ratio and was let to react for 120 minutes at room temperature. […]
In FRET assay, Fluorescein Isothiocyanate (FITC) functioned as fluorescent acceptor probe and Terbium Diethylene Triamine Pentaacetic Acid-Cytosine (Lanthanide-DTPA-Cytosine) functioned as donor probe. […] Lifetime of donor probe was measured in milliseconds.
The specificity of peptides were later tested on the myosin S2 of the smooth muscle (MYH11). […] Calculated separation distance in presence of the stabilizer peptide was 3.34 nm.

H-EVTERAEDEEEINAELTAK-OH [Skeletal Myosin S2, reference compound]
Force required to uncoil S2 molecule [1]: 4.50E−01 ± 5.56E−02 pN
Force required to uncoil S2 molecule ([1]; listed as skeletal muscle myosin S2): 4.50×10^−1±5.56×10^−2 pN

H-EMNERLEDEEMNAELTAK-OH [Cardiac Myosin S2 Mutant, E930del]
Force required to uncoil S2 molecule [2]: 4.11E−01 ± 2.97E−02 pN
Force required to uncoil S2 molecule ([2]; listed as E930del): 4.11×10^−1±2.97×10^−2 pN
mechanical instability compared to wild type cardiac muscle myosin S2 ([2]; no anti-S2 peptide): 2.10 times

H-EMNERLEDEEEMNAELTAK-OH [Cardiac Myosin S2, reference compound]
Force required to uncoil S2 molecule [3]: 8.63E−01 ± 7.45E−02 pN
Force required to uncoil S2 molecule ([3]; listed as cardiac muscle myosin S2): 8.63×10^−1±7.45×10^−2 pN
minimum amount that would bind primary polyclonal anti-S2 antibody [4]: 62.5 nM

C[C@H](NC(=O)[C@H](CCCCN)NC(=O)[C@H](Cc1ccccc1)NC(=O)[C@H](CCCCN)NC(=O)[C@H](CCCCN)NC(=O)[C@H](CCCCN)NC(=O)[C@H](CCCCN)NC(=O)[C@H](CCCCN)NC(=O)[C@H](CCCCN)NC(=O)[C@H](CCCCN)NC(=O)[C@@H](N)CCCCN)C(=O)N[C@@H](CCCCN)C(=O)N[C@@H](CCCCN)C(=O)N[C@@H](CCCCN)C(=O)N[C@@H](CCCCN)C(=O)N[C@@H](CCCCN)C(=O)N[C@@H](CCCCN)C(=O)O [stabilizer peptide]
Kd [5]: 1.37 nM and 1.38 nM

H-EMEARLEEEEDRGQQLQAERK-OH [Smooth Myosin S2, reference compound]
Kd [6]: 302 nM
